# Data published in US10272096B2, “Methods and systems of treating wounds” (priority 2013, dated 2019).
# Experiments:
# A-549 cells = test: Mechanical scratch wound assay in A-549 cell monolayer; format: cell-based
# Procedure: (A) Mechanical scratch wounds were generated in a monolayer of A-549 cells, and 30 hours later, the area of the wound was evaluated by custom computer-based software. At 0, 4, 9, and 24 hour post wounding, cells received fresh medium with 5 uM of NO-Cbl, Deta-NONOate, sodium nitroprusside (SNP), or fresh medium alone. (B) The normalized average wound area was determined by dividing the final wound area by the initial wound area and averaging replicates. Data represent the mean+/−SEM of at least 3 separate experiments with an n=12 in each experiment.
# [1] = test system: lung epithelial cells, primary human lung fibroblasts, cancer cell model; test: In vitro wound healing in several different cell systems; format: cell-based
# Text: . The inventors established this optimal dose range in order to provide a reasonable dose for actual treatment of airway injury. Mechanistically, the inventors determined that improved wound healing was from increased cell migration and not cell proliferation (division). […]
# U2OS cells = format: cell-based, human
# Procedure: U2OS human osteosarcoma cells were obtained from the American Type Tissue Culture Collection (ATCC, Rockville, Md.). Cells were grown in T-75 flasks (Corning, Fisher, Pittsburgh, Pa.) in a 37° C., 5% CO2/95% air incubator using Dulbecco's Modified Eagle's Medium (DMEM) and supplemented with 10% fetal bovine serum (Mediatach, Manassas, Va.). Cells were trypsinized with TrypLE (Invitrogen Life Technologies, Carsbad, Calif.), seeded into 6-well or 96-well plates (Corning, Fisher, Pittsburgh, Pa.) and grown to confluence.
# Cells were exposed to LLLT for 30 min and 1 h later received a single treatment of 5 μM NO-Cbi.
# The scratch wound closure assay has been previously described (see Spitler et al., Nitrosyl-cobinamide (NO-Cbi), a new nitric oxide donor, improves wound healing through cGMP/cGMP-dependent protein kinase, Cell Signal 2013, 25(12):2374-2382). Briefly 600-700 μm wide single line scratches were mechanically generated in a cell monolayer by a 200 μl plastic tip across the length of the well. Cells from both edges of the wound migrated into the open area, which was measured at 24 h. The change in area was quantified using a custom Mat Lab script. The wound closure rate was determined by plotting changes in the wound area as a function of time.
# Erk1/2 = test: Western blot analysis of phospho-Erk1/2 in U2OS cells; format: cell-based, human
# Procedure: Cells were lysed and harvested 10 min after LLLT treatment in Laemmli buffer heated to 100° C. (BioRad, Hercules, Calif.), and lysates were sonicated and resolved on SDS-PAGE gels. The proteins were transferred to a nitrocellulose membrane (GE Healthcare Life Sciences, Pittsburgh) and blocked for 1 h with Pierce Protein-Free Blocking buffer (Thermo Scientific, Rockford, Ill.). They were incubated overnight with antibodies for phospho-ERK1/2(Thr202/Tyr203) at 1:10,000 in TBS/5% BSA (Cell Signaling Technology). Membranes were then incubated with an anti-rabbit-HRP antibody at 1:2000 for 1 h and developed using a luminol-based chemiluminescent substrate.
substance,measurement,setting,value
nitrosyl-cobinamide [NO-Cbi],effectiveness on a molar basis compared with other NO donors,A-549 cells,more effective than two other NO donors
same,wound healing and migration (normalized wound area),A-549 cells,increases wound healing and migration
same,in vitro wound healing,[1],improved in vitro wound healing
same,wound healing (normalized wound area at 24 h),U2OS cells,enhance wound healing
same,"wound healing, combination with LLLT",U2OS cells,markedly enhanced wound healing compared to either treatment alone
same,Erk1/2 activation (phosphorylation),Erk1/2,increased Erk1/2 activation
same,"Erk1/2 activation, combination with LLLT",Erk1/2,same degree of Erk1/2 activation as NO-Cbi alone
